Reference: patent US20100130359A1 (priority 2007, published 2010)

Legend:
Phytophthora infestans = type: in vivo, Phytophthora infestans on tomato plants; conditions: 250 ppm active compound, sprayed one day before infection, assessed after 6 days; untreated plants 80% infected
Septoria tritici = test: Protective activity against Septoria leaf blotch of wheat caused by Septoria tritici; type: in vivo, Septoria tritici on wheat seedlings; conditions: 250 ppm active compound, sprayed six days after inoculation, assessed after 14 days; untreated plants 90% infected
Experimental: The active compounds were prepared as a stock solution comprising 25 mg of active compound which was made up to 10 ml using a mixture of acetone and/or DMSO and the emulsifier Uniperol® EL (wetting agent having emulsifying and dispersing action based on ethoxylated alkylphenols) in a volume ratio of solvent/emulsifier of 99/1. The mixture was then made up to 100 ml with water. This stock solution was diluted with the solvent/emulsifier/water mixture described to the concentration of active compounds stated below. Alternatively, the active compounds were used as a commercial finished formulation and diluted with water to the stated active compound concentration.
Leaves of potted wheat seedlings were inoculated with a spore suspension of the leaf blotch disease Septoria tritici. The test plants were then placed in a greenhouse at temperatures between 20 and 22° C. and a relative atmospheric humidity of close to 100% and then at temperatures between 16 and 18° C. and an atmospheric humidity of about 70% for 4 days. Six days after the inoculation, the plants were sprayed to runoff point with an aqueous active compound solution having the concentration stated below. After the spray coating had dried on, the plants were returned. After 14 days, the extent of the development of the disease was determined visually in % infection of the entire leaf area.

Cc1nnc(Cl)c(-c2c(F)cc(OCCCN(C)C)cc2F)c1-c1ccc(Cl)cc1 [Compound I-1, (3-{-4-[3-chloro-5-(4-chlorophenyl)-6-methylpyridazin-4-yl]-3,5-difluorophenoxy}propyl)dimethylamine]
infection of treated tomato plants (late blight), determined visually (Phytophthora infestans): no infection
infection of the entire leaf area of treated wheat plants, determined visually (Septoria tritici): 10%
